Laboratory results taken from US20230150951A1, “2,5- OR 2,6-DISUBSTITUTED HYDROQUINONE DERIVATIVES WITH AT LEAST ONE CARBOXY, SULFO OR AMIDO GROUP USEFUL AS MEDICAMENTS” (OM PHARMA SA, priority 2020, published 2023).

Columns and labels:
[1] = test system: human primary cells; experiment: BioMap Plus phenotypic profiling in human primary cell-based systems; conditions: 30, 10, 3.3, 1.1 μM
Description: A series of in vitro assays was performed using human primary cell-based assays modeling complex tissue and disease biology of organs (vasculature, immune system, skin, lung) and general tissue biology for phenotypic profiling of compounds in conditions that preserve crosstalk and feedback mechanisms relevant to in vivo outcomes.

[2] = test system: ARPE-19 cells; experiment: Outer blood retinal barrier: ARPE-19 monolayer permeability to FITC-dextran; format: cell-based, human; conditions: for p < 0.05 (ARPE19 permeability versus diabetic milieu): IL-β, after 90 min
Excerpt: The mechanisms of actions involved in the anti-permeability effect of the tested treatments were explored by assessing permeability to fluorescent dextran and proinflammatory cytokines production using their mRNA expression levels by RT-PCR.
(§1) Outer Blood Retinal Barrier conditions: human retinal pigment epithelial cells (RPE) cultures ARPE-19, a spontaneously immortalised human RPE cell line were obtained from American Type Culture Collection (Manassas, Va., USA). ARPE-19 cells and they were cultured in euglycaemic conditions (D-glucose (D-Glc), 5.5 mmol/L) and hyperglycaemic conditions (D-glucose, 25 mmol/L) for 18 days at 37° C. under 5% (vol./vol.) CO2 in medium (DMEM/F12) supplemented with 10% (vol./vol.) FBS (Hyclone; Thermo Fisher Scientific, UT, USA) and 1% (vol./vol.) penicillin/streptomycin (Hyclone; Thermo Fisher Scientific). ARPE-19 cells from passage 20 were used and the medium changed every 3-4 days. For permeability studies, ARPE-19 cells were seeded at 400,000 cells/ml (80,000 RPE cells/well) in 0.33 cm^2 HTS-Transwells (Costar; Corning, N.Y., USA). For real-time PCR, western blot analysis and immunofluorescence cells are seeded at 20,000 cells/ml.
(§2) Experimental conditions and treatments: apart from the euglycemic condition, eighteen different conditions were tested in cells cultured under 25 mmol/L D-glucose:
Condition 2) Cells are treated with diabetic milieu 25 mM D-Glucose+vehicle (days 15, 16 and 17 at one application/day) in order to evaluate their effect in preventing the cell damage provoked by the diabetic milieu.
Condition 9) Cells were treated with 25 mM D-Glucose and bevacizumab (0.2 mg/ml) for 72 h (days 15, 16 and 17 at one application/day) to evaluate their potential cytotoxic effects.
Condition 10)=Diabetic milieu; cells were treated with 25 mM D-Glucose+[…] (10 ng/ml)+TNF-α (25 ng/ml)+VEGF (25 ng/ml), for 48 h (days 16 and 17 at one application/day) in order to provoke the disruption of the monolayer.
Condition 17) Cells are treated with diabetic milieu (25 mM D-Glucose+IL-1β (10 ng/ml)+TNF-α (25 ng/ml)+VEGF (25 ng/ml))+bevacizumab (0.2 mg/mL) (days 15, 16 and 17 at one application/day) in order to evaluate their effect in preventing the cell damage provoked by the diabetic milieu.
Measurement of ARPE-19 permeability: The permeability of RPE cells was determined at 18 days by measuring the apical-to basolateral movements of FITC-dextran (40 kDa) (Sigma, St Louis, […]., USA) following a procedure previously reported by Villarroel et al. Exp Eye Res, 2009, 89, 913-920.

[3] = test system: ARPE-19 cells; experiment: ROS and cytokine/VEGF mRNA production by ARPE-19 monolayer cells in non-diabetic and diabetic milieu; format: cell-based, human; conditions: ARPE19 monolayer; for ROS: ROS % to 25 mM D-Glucose; for IL-1β R.Q. mRNA / IL-6 R.Q. mRNA / IL-18 R.Q. mRNA / TNFα R.Q. mRNA / VEGF R.Q. mRNA: relative change vs 25 mM D-Gluc
Description: as §1, §2
• Proinflammatory cytokines were evaluated in ARPE-19 cells by RT-PCR and mRNA for IL-6, TNF-α, IL-1β, IL-18, VEGF, IL-10, FGF were measured using the double delta CT method 2-ΔΔCT with Cts values for the gene of interest and the endogenous human B-actin to obtain ΔCT; mRNA values were expressed as relative change with respect to the condition 25 mM D-Gluc. (ref: Livak K J, Analysis of Relative Gene Expression Data Using Real-Time Quantitative PCR and the 2-ΔΔCT Method, Methods, 2001, 25(4), 402-408, doi 10.1006/meth.2001.1262) • ROS production was evaluated using Cell Biolabs' OxiSelect™ Intracellular ROS Assay (Green Fluorescence) (Bionova, Madrid, Spain). The assay employs the cell-permeable fluorogenic probe 2′, 7′-Dichlorodihydrofluorescin diacetate (DCFH-DA), oxidized to highly fluorescent 2′, 7′-Dichlorodihydrofluorescein (DCF) by cellular ROS. • Endothelin-1, PDGF and VCAM-1 expression was analyzed in HREC monolayers by immunohistochemical analysis and by RT-PCR. • TJ expression (ZO) is analyzed in ARPE-19 and HREC monolayers by immunohistochemical analysis.

[4] = 25 mM D-Gluc, compound 25 μg/mL
[5] = 25 mM D-Gluc, compound 50 μg/mL
[6] = diabetic milieu (25 mM D-Gluc + VEGF, TNF-α, IL-1β), compound 25 μg/mL
[7] = diabetic milieu (25 mM D-Gluc + VEGF, TNF-α, IL-1β), compound 50 μg/mL

O=C(O)c1cc(NC(=O)c2cc(O)cc(C(=O)Nc3ccc(O)c(C(=O)O)c3)c2O)ccc1O [IIc-007a, 5-(3-(3-carboxy-4-hydroxyphenylaminocarbonyl)-2,5-dihydroxybenzamido)-2-hydroxy benzoic acid]
Antiproliferative effects on human primary cells [1]: did not have any antiproliferative effects
Cytotoxicity in BioMap Plus [1]: not cytotoxic
Immunomodulatory activities [1]: decreased sIL-10, sIL-2
Inflammation-related activities [1]: decreased sTNFα, MIP-1α; increased IL-8; modulated MCP-1
Number of annotated readouts [1]: 12
Tissue remodeling activities [1]: decreased Collagen I, Collagen IV, Collagen III, PAI-1
% permeability ARPE19 ([2]; No 3-5: 25 mM D-Gluc + compound 25 μg/mL): 66.1 ± 4.9%
% permeability ARPE19 ([2]; No 6-8: 25 mM D-Gluc + compound 50 μg/mL + VEGF, TNF-α, (so in the source)): 113.1 ± 11.4%
% permeability ARPE19 ([2]; No 11-13: 25 mM D-Gluc + compound 25 μg/mL + VEGF, TNF-α, (diabetic milieu)): 114.7 ± 19.0%
p < 0.05 (ARPE19 permeability versus diabetic milieu) ([2]; No 11-13: compound 25 μg/mL + VEGF, TNF-α): * (* p < 0.05 for FITC dextran leakage measured after 90 min in [ng/mL/cm^2] in comparison with diabetic milieu (25 mM D-Gluose + VEGF, TNF-α, IL-β))
% permeability ARPE19 ([2]; No 14-16: 25 mM D-Gluc + compound 50 μg/mL + VEGF, TNF-α, (diabetic milieu)): 136.8 ± 13.0%
p < 0.05 (ARPE19 permeability versus diabetic milieu) ([2]; No 14-16: compound 50 μg/mL + VEGF, TNF-α): * (* p < 0.05 for FITC dextran leakage measured after 90 min in [ng/mL/cm^2] in comparison with diabetic milieu (25 mM D-Gluose + VEGF, TNF-α, IL-β))
ROS [3, 4]: 55 ± 6.4%
IL-1β R.Q. mRNA [3, 4]: 0.74 ± 0.26 R.Q.
IL-6 R.Q. mRNA [3, 4]: 0.73 ± 0.00 R.Q.
IL-18 R.Q. mRNA [3, 4]: 0.75 ± 0.09 R.Q.
TNFα R.Q. mRNA [3, 4]: 0.57 ± 0.18 R.Q.
VEGF R.Q. mRNA [3, 4]: 0.06 ± 0.01 R.Q.
ROS [3, 5]: 72 ± 11%
IL-1β R.Q. mRNA [3, 5]: 0.24 ± 0.11 R.Q.
IL-6 R.Q. mRNA [3, 5]: 0.34 ± 0.08 R.Q.
IL-18 R.Q. mRNA [3, 5]: 0.04 ± 0.00 R.Q.
TNFα R.Q. mRNA [3, 5]: 0.45 ± 0.30 R.Q.
VEGF R.Q. mRNA [3, 5]: 0.12 ± 0.03 R.Q.
ROS [3, 6]: 47 ± 7.6 %
IL-1β R.Q. mRNA [3, 6]: 41.03 ± 17.57 R.Q.
IL-6 R.Q. mRNA [3, 6]: 10.83 ± 6.90 R.Q.
IL-18 R.Q. mRNA [3, 6]: 0.07 ± 0.01 R.Q.
TNFα R.Q. mRNA [3, 6]: 6.31 ± 0.06 R.Q.
VEGF R.Q. mRNA [3, 6]: 0.11 ± 0.01 R.Q.
ROS [3, 7]: 74 ± 38 %
IL-1β R.Q. mRNA [3, 7]: 11.39 ± 6.52 R.Q.
IL-6 R.Q. mRNA [3, 7]: 1.50 ± 1.19 R.Q.
IL-18 R.Q. mRNA [3, 7]: 0.03 ± 0.00 R.Q.
TNFα R.Q. mRNA [3, 7]: 4.24 ± 0.77 R.Q.
VEGF R.Q. mRNA [3, 7]: 0.13 ± 0.02 R.Q.
